PubChem BioAssay AID463203 (Broad Institute, 2010)
Activity calls are given as the source filed them.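 The calls were made as follows: active = more than half of replicate measurements showing over 20% loss of kinase signal relative to plate controls; inconclusive = some but at most half of replicates over 20% loss; inactive = no replicate over 20% signal loss.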

Each molecule was assayed against Glycogen synthase kinase-3 alpha (Homo sapiens) (UniProt P49840) (assay: concentration-response blocking of human GSK3A – biochemical, luminescence, cell-free homogeneous, retest, dose response (AID 463203)). Conditions: GSK-3 alpha enzyme, ADP-Glo luminescence, 60 min.
Chain of Glycogen synthase kinase-3 alpha (Homo sapiens) (P49840 whole entry, looked up): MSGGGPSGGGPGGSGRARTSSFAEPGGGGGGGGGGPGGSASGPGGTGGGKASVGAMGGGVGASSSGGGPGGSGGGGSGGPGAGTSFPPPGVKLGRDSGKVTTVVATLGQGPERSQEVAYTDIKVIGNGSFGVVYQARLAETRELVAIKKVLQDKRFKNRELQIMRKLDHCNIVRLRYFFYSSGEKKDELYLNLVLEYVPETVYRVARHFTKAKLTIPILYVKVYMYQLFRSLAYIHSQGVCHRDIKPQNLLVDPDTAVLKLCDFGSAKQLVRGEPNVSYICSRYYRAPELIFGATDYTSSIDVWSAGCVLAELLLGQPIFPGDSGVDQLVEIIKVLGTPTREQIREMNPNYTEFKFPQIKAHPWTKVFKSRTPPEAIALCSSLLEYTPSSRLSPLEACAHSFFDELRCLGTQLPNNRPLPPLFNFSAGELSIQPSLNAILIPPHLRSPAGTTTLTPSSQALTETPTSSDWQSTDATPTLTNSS

Structure (SMILES) | AC50
CCCc1c(C(=O)N/N=C/c2cccnc2)nnn1-c1nonc1N | > 30 µM (inactive)
COc1cc(/C=N/NC(=O)CSCc2ccc([N+](=O)[O-])cc2)cc(OC)c1OC | > 30 µM (inactive)
O=C(O)c1ccc(Nc2nc(-c3ccccc3)nc3ccccc23)cc1 | > 30 µM (inactive)
Oc1ccc(/C=N/NP(=S)(c2ccccc2)c2ccccc2)cc1O | > 30 µM (inactive)
COCCCNc1nc2nonc2nc1NCCSC | > 30 µM (inactive)
COc1ccc(-c2cc(C(=O)N3CCN(c4ccccc4OC)CC3)no2)cc1OC | > 30 µM (inactive)
Cn1c(SCC(=O)N/N=C/C=C\c2ccco2)nc2ccccc21 | > 30 µM (inactive)
COc1ccc(Nc2nc(-c3cc4cccc(OC)c4oc3=O)cs2)cc1 | > 30 µM (inactive)
Brc1ccc(-c2nc3ncccn3c2NC2CCCCC2)o1 | 2.61 µM
CCn1c2ccccc2c2nc3ccccc3nc21 | > 30 µM (inactive)
COc1ccc2nc(SCC(=O)Nc3nccs3)[nH]c2c1 | 7.82 µM
CCSc1nc2c(c(=O)[nH]1)C(c1ccccn1)C1=C(CC(C)(C)CC1=O)N2 (stereo not given) | > 30 µM (inactive)
Oc1ccc2oc3c(c2c1C=NCc1ccncc1)CCCC3 | > 30 µM (inactive)
Cc1nc(NCCc2ccccc2)c(C#N)c(C)c1[N+](=O)[O-] | > 30 µM (inactive)
COc1ccc([C@H]2[C@H](C(=O)C(C)(C)C)N3N=Cc4ccccc4C3[C@]23N=C(c2ccccc2)OC3=O)cc1OC (stereo not given in full) | > 30 µM (inactive)
N#CC1=C2SCN(c3ccccc3)CN2C(=O)CC1c1ccccc1Cl (stereo not given) | > 30 µM (inactive)
Cc1cccc(-c2c3c(=O)n(C)c(=O)n(C)c3c3cccnn23)c1 | > 30 µM (inactive)
COC(=O)[C@@H](NC(=O)NCc1ccc(F)cc1)C(C)C | > 30 µM (inactive)
CC(=O)c1cc(-c2ccc(F)cc2)n(CCC(=O)Nc2cc(C)[nH]n2)c1C | 11.9 µM
Cc1ccccc1OCCSc1nnc(C)n1-c1ccccc1 | > 30 µM (inactive)
COc1ccc(/C=C(/NC(=O)c2ccc([N+](=O)[O-])cc2)C(=O)NC(C)(C)C)cc1 | > 30 µM (inactive)
C=C(C)CSc1nnc([C@@H](N)Cc2c[nH]c3ccccc23)o1 | > 30 µM (inactive)
O=C1NC(=O)/C(=C\c2ccc(OCc3cccc(C(=O)O)c3)c(Cl)c2)N1 | 4.85 µM
Cc1ccc(C(=O)N/C(=C/c2ccc(-c3cccc([N+](=O)[O-])c3)o2)C(=O)NC(C)C)cc1 | > 30 µM (inactive)
CCOc1ccc(Nc2nc(NCc3ccco3)nc(N)c2[N+](=O)[O-])cc1 | > 30 µM (inactive)

Structure (SMILES) | AC50
COc1ccc(Nc2nc(Cl)c(C=O)s2)cc1 | > 30 µM (inactive)
Cc1ccsc1C1C2=C(CC(C)(C)CC2=O)Nc2ncnn21 (stereo not given) | 11.3 µM
COc1ccc(CC(=S)N2CCOCC2)cc1OC | > 30 µM (inactive)
COc1ccc2nc(NC(=O)CSc3nc4ccccc4o3)sc2c1 | 28.8 µM
COc1cccc2cc(C(=O)NCc3ccco3)c(=O)oc12 | > 30 µM (inactive)
CCC(C)c1ccc(NC(=S)NCc2cccs2)cc1 (stereo not given) | > 30 µM (inactive)
CC1=C(C(=O)OCc2ccccc2)C(c2cccc(F)c2)NC(=O)N1 (stereo not given) | > 30 µM (inactive)
Oc1ccc2cccnc2c1 | > 30 µM (inactive)
COc1ccc(NC(=O)/C(C#N)=C\C=C\c2ccco2)cc1 | > 30 µM (inactive)
O=C(COc1ccccc1F)NC1CC1 | > 30 µM (inactive)
CCOC(=O)c1c(NC(=O)CN2C(=O)NC3(CCCCC3C)C2=O)sc(C(=O)N(C)C)c1C (stereo not given) | > 30 µM (inactive)
COC(=O)c1cnn(C(=O)c2cc(OC)ccc2Br)c1N | > 30 µM (inactive)
COc1ccc(-c2cc(C(=O)N3CCN(c4ccccc4OC)CC3)no2)cc1 | > 30 µM (inactive)
Oc1ccc(/C=N/Nc2nccnc2Cl)cc1 | 24.8 µM
COc1ccc([N+](=O)[O-])cc1NC(=O)CCN1CCN(C)CC1 | > 30 µM (inactive)
CCOC(=O)c1cc(-c2ccccc2)n(CCC(=O)NC(C)CC)c1C (stereo not given) | > 30 µM (inactive)
C/C(=N\NC(=O)c1nnn(-c2nonc2N)c1CN(C)c1ccccc1)c1ccc(O)cc1 | > 30 µM (inactive)
Cc1nc(SCCC(C)C)c([N+](=O)[O-])[nH]1 | > 30 µM (inactive)
O=S(=O)(Nc1ccccc1O)c1cccc2cccnc12 | > 30 µM (inactive)
Brc1ccccc1C1=Nn2c(nnc2-c2ccco2)SC1 | 17.5 µM
Cc1ccc(-c2nnc(N3CCN(C(=O)COc4cccc(C)c4)CC3)c3ccccc23)cc1 | > 30 µM (inactive)
Cc1ccc(Sc2nc(-c3ccccc3)nnc2C(F)(F)F)cc1 | > 30 µM (inactive)
O=Cc1cc(N=Nc2ccc(S(=O)(=O)O)cc2)ccc1O | > 30 µM (inactive)
CSc1ccc(CN2CCN(Cc3ccc([N+](=O)[O-])cc3)CC2)cc1 | > 30 µM (inactive)
Cc1cc(NC(=O)CSc2nc3ccccc3c(=O)n2CCCC(=O)NCc2ccco2)n[nH]1 | > 30 µM (inactive)

Structure (SMILES) | AC50
CCNc1cc(N2CCCC2)ccc1[N+](=O)[O-] | > 30 µM (inactive)
Cc1c(C(=O)N2CCOCC2)oc2ccc(S(=O)(=O)N3CCCC3)cc12 | > 30 µM (inactive)
O=S(=O)(c1ccc(Cl)nc1)N1CCN(Cc2ccc3c(c2)OCO3)CC1 | > 30 µM (inactive)
CCOC(=O)c1nnn(-c2nonc2N)c1COc1c(C=O)cccc1OC | 4.32 µM
CCOc1cccc(-c2c(C(=O)N/N=C(\C)c3ccccn3)nnn2-c2nonc2N)c1 | 2.56 µM
CC(C)(C)N1C(=O)c2ccc(C(=O)O)cc2C1=O | > 30 µM (inactive)
CC(C)(C)OC(=O)N1CCC(NC(=O)c2[nH]cnc2C(=O)Nc2ccon2)CC1 | 4.47 µM
COc1cccc(CNc2nc(C(F)(F)F)nc3ccccc23)c1 | > 30 µM (inactive)
COc1cccc(/C=N/n2nnnc2N)c1OCC#N | > 30 µM (inactive)
O=c1cc[nH]c2ccc(OC(F)(F)F)cc12 | > 30 µM (inactive)
CC(Oc1ccc(Br)cc1)C(=O)N1CCC(C(N)=O)CC1 (stereo not given) | > 30 µM (inactive)
COc1ccc(-c2ncncc2-c2ccc(OC)c(OC)c2)c(O)c1 | 10.3 µM
CC(C)=CCc1c(O)cc(O)c2c(=O)c(O[C@@H]3O[C@@H](C)[C@H](O)[C@@H](O)[C@H]3O)c(-c3ccc(O)cc3)oc12 | 19.6 µM
Fc1ccccc1/C=N/Nc1cc(N2CCCCC2)ncn1 | > 30 µM (inactive)
CCOC(=O)c1sc(NC(=O)CSc2ncn[nH]2)c(C#N)c1C | > 30 µM (inactive)
Cc1csc(NC(=O)C2CCCN(S(=O)(=O)c3cnc[nH]3)C2)n1 (stereo not given) | > 30 µM (inactive)
C/C(=N\NC(=O)c1ccccc1NC(=O)c1ccc(Cl)cc1)c1ccncc1 | 12.6 µM
O=C1CC(/C=C/c2ccncc2)=Nc2ccccc2N1 | 13.1 µM
O=[N+]([O-])c1cnc2nc(-c3ccncc3)nn2c1O | 8.27 µM
Nc1nonc1-c1nc2ccccc2n1CCC(=O)O | 16.4 µM
O=[N+]([O-])c1cc(C(F)(F)F)ccc1NCCCN1CCOCC1 | > 30 µM (inactive)
CCOC(=O)c1c2c(n(C)c1C)C(=O)C(=O)c1ccc(Br)cc1-2 | 15 µM
Cc1nc(Nc2ccc(S(N)(=O)=O)cc2)oc1C | > 30 µM (inactive)
O=C(COC(=O)c1cc([N+](=O)[O-])ccc1N1CCOCC1)Nc1ccc(Cl)cn1 | 4.79 µM
CCOC(=O)c1sc(NC(=O)C2CC2)cc1C | > 30 µM (inactive)
